What was measured:
[1] = Moisture retention test (rate of decrease in water content of solution); assay type: physicochemical; conditions: 10 mass % in ion exchanged water; silica gel desiccator 25° C., RH 20%; vs water alone; FIG. 1
Description: In accordance with the following test method, the rate of decrease in water content of lauryl thiogalactoside (compound of Production Example 2) solution was calculated to evaluate moisture-retaining property.
0.5 g of a sample prepared by adjusting a concentration of lauryl thiogalactoside to 10 mass % with ion exchanged water was weighed in a container made of a resin to measure an initial weight (W0).
Next, the sample was left to stand still in a silica gel desiccator (RT; 25° C., RH; 20%) to measure a time-dependent weight (Wt) of the sample.
After the completion of the test, the sample was dried in a dryer (50° C.) for 2 hours and then left to stand still in a silica gel desiccator for 2 hours to measure a dry weight (Ws).
The same operation was conducted for a control sample prepared using water alone, and the rate of decrease in water content was calculated with the following equation.
Rate of decrease in water content (%)=Ht/H0×100(Ht=Wt−Ws, H0=W0−Ws)

photoaged skin = assay: Wrinkle reduction test on photoaged skin of hairless mice (UVA/UVB irradiation); assay type: in vivo; conditions: photoaged hairless mouse skin
Excerpt: A wrinkle-reducing effect in the case of applying a sample containing a base alone or lauryl thiogalactoside (compound of Production Example 2) to photoaged skin was examined by the following test methods.
Ten hairless mice, which were 10 weeks old at the start of the test, were used for each group.
Photoaging was induced by irradiation with UVA and UVB once a day, five times a week for 8 weeks. An irradiation dose was increased every week from 20 J/cm^2 to 25 J/cm^2 and to 30 J/cm^2 for UVA, from 20 mJ/cm^2 to 30 mJ/cm^2 and to 40 mJ/cm^2 for UVB, and the maximum dose was irradiated in Week 3 or later.
A wrinkle-reducing effect was evaluated by a wrinkle score and an epidermal thickness. The wrinkle score was determined in accordance with the method of Bissett et al. (Photochem. Photobiol. 46: 367-378, 1987). In other words, the size and depth of wrinkles were comprehensively evaluated with naked eyes and scored with the following four grades: 3, “large and deep wrinkles can be confirmed”; 2, “wrinkles can be confirmed”; 1, “no wrinkles can be confirmed”; and 0, “normal skin texture can be observed”. […]
A sample containing lauryl thiogalactoside in an amount of 1% in a 50 vol % ethanol aqueous solution (base) was prepared (Example 1). […] Subsequently, after the completion of the application, the wrinkle score was determined. […]

CCCCCCCCCCCCSC1OC(CO)C(O)C(O)C1O (stereo not shown) [lauryl thiogalactoside]
Moisture-retaining property (rate of decrease in water content) [1]: did not suppress water volatilization in a dry state and exhibited an insufficient moisture-retaining action | Effect on epidermal thickening (in words) (photoaged skin): had an effect of alleviating the epidermal thickening owing to photoaging | Effect on wrinkles / wrinkle score (in words) (photoaged skin): effective for wrinkles induced by photoaging | Result in an ordinary safety test (Ordinary safety test): does not have any problem in an ordinary safety test

— US20110124586A1, “EXTERNAL PREPARATION FOR SKIN, AND WRINKLE-REPAIRING AGENT” (Kao Corporation, priority 2008, published 2011)
